Each structure is given as a SMILES string.

We go through nine molecules from ChEMBL document CHEMBL1132579, “Self-organizing molecular field analysis: a tool for structure-activity studies” (J Med Chem, 1999).

The assay addresses T1, Corticosteroid-binding globulin (Homo sapiens) (UniProt P08185).
T1 sequence (whole entry): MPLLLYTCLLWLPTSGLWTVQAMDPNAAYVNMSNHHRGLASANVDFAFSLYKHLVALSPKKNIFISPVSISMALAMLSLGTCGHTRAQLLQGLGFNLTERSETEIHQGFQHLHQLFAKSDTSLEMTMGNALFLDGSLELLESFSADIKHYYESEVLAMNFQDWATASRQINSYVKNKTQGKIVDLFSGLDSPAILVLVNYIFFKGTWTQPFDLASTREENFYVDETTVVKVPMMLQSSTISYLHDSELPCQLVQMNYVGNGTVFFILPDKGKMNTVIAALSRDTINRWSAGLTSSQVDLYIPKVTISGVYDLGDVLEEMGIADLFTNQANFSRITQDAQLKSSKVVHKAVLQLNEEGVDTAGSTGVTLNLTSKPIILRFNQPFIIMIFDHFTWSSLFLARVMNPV
Put plainly: Compound was evaluated for its binding affinity towards the human corticosteroid binding globulin.
For `CC(=O)[C@H]1CCC2C3CCC4=CC(=O)CCC4C3CC[C@@]21C` (some centres undefined), the Log is -6.82 k. Turning to `C[C@@H]1C[C@@]2(C)C(=CC1=O)CC[C@H]1[C@@H]3CC[C@](O)(C(=O)CO)[C@@]3(C)C[C@H](O)[C@@]12F`, the Log is -5.8 k. In turn, `C[C@]12C=CC(=O)C=C1CC[C@@H]1[C@@H]2[C@@H](O)C[C@@]2(C)[C@H]1CC[C@]2(O)C(=O)CO` gave a Log of -7.51 k. Molecule `C[C@]12C[C@@H](O)[C@H]3[C@@H](CCC4=CC(=O)CC[C@@]43C)[C@@H]1CC[C@@H]2C(=O)CO` returned a Log of -7.2 k. In turn, `CC(=O)[C@@]1(O)[C@H](O)C[C@H]2[C@@H]3CCC4=CC(=O)CC[C@]4(C)[C@H]3CC[C@@]21C` showed a Log of -6.25 k. Molecule `CC(=O)[C@H]1CC[C@H]2[C@@H]3CCC4=CC(=O)CC[C@]4(C)[C@H]3C(=O)C[C@]12C` showed a Log of -6.78 k. The molecule `CC(=O)OCC(=O)[C@@]1(O)CCC2C3CCC4=CC(=O)CC[C@]4(C)C3[C@@H](O)C[C@@]21C` (some centres undefined) showed a Log of -7.55 k. On to `CC(=O)[C@H]1[C@H](C)C[C@H]2[C@@H]3CCC4=CC(=O)CC[C@]4(C)[C@H]3CC[C@@]21C`, for which the Log is -7.12 k. Take `C[C@]12CC[C@H]3[C@@H](CCC4=CC(=O)CC[C@@H]43)[C@@H]1CC[C@@H]2O`: the Log was -6.14 k.
